According to the supplement of paper PMC12819154, “High-throughput peptide-centric local stability assay extends protein–ligand identification to membrane proteins, tissues and bacteria” (Nature Structural & Molecular Biology, 2025):

Legend:
Test in all cases: pEC50 of peptide local stability change
MurF = MurF (UniProt P11880); details: peptide sequence: KLTPGCLFVALKGER; direction: stabilized; replicate design: treated separately
Description: (§1)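 Dose-response HT-PELSA: desalted E. coli lysate treated separately per replicate with ATP (10 uM to 10 mM, 7 doses) for 30 min at 25 C, then a 4 min trypsin pulse at 22 C. Peptide ratio vs control was fitted with a 4-parameter log-logistic model (R2 > 0.9 in at least 3 replicates, CV of pEC50 <= 0.25); value is the mean pEC50 across replicates for stabilized or destabilized peptides.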

UniProt P00452 = details: peptide sequence: VKAVELFSLMMQER; direction: stabilized; replicate design: treated separately
Description: as §1

UniProt P00954 = details: peptide sequence: FRNDEAFLQQVMK; direction: stabilized; replicate design: treated separately
Description: as §1

UniProt P03007 = details: peptide sequence: VTDSLAVAR; direction: stabilized; replicate design: treated separately
Description: as §1

UniProt P04993 = details: peptide sequence: VAAAVALTR; direction: stabilized; replicate design: treated separately
Description: as §1

UniProt P06710 = details: peptide sequence: ALDVEQIR; direction: stabilized; replicate design: treated separately
Description: as §1

UniProt P06999 = details: peptide sequence: ELTQPDDVR; direction: stabilized; replicate design: treated separately
Description: as §1

UniProt P07862 = details: peptide sequence: AWTTLGCK; direction: stabilized; replicate design: treated separately
Description: as §1

UniProt P08192 = details: peptide sequence: ASGLEVSENAIR; direction: stabilized; replicate design: treated separately
Description: as §1

UniProt P08200 = details: peptide sequence: VAIKGPLTTPVGGGIR; direction: stabilized; replicate design: treated separately
Description: as §1

UniProt P0A9P6 = details: peptide sequence: DVLGMAQTGSGK; direction: stabilized; replicate design: treated separately
Description: as §1

UniProt P0AEC3 = details: peptide sequence: DSHGGKPATGTGIGLAVSR; direction: stabilized; replicate design: treated separately
Description: as §1

UniProt P0AFU4 = details: peptide sequence: LMTASWPGNVR; direction: stabilized; replicate design: treated separately
Description: as §1

UniProt P0DMC5 = details: peptide sequence: EVMNHITANYLPLVVR; direction: stabilized; replicate design: treated separately
Description: as §1

UniProt P11868 = details: peptide sequence: HIAGHAASLR; direction: stabilized; replicate design: treated separately
Description: as §1

UniProt P12282 = details: peptide sequence: NQLNAGCFAAK; direction: stabilized; replicate design: treated separately
Description: as §1

UniProt P13000 = details: peptide sequence: TVASCALLQAAK; direction: stabilized; replicate design: treated separately
Description: as §1

UniProt P21693 = details: peptide sequence: DSLQHAPHIIVATPGR; direction: stabilized; replicate design: treated separately
Description: as §1

UniProt P23538 = details: peptide sequence: QVKIEDVPQEQR; direction: stabilized; replicate design: treated separately
Description: as §1

UniProt P25539 = details: peptide sequence: HVGPDVCLHLVGA; direction: stabilized; replicate design: treated separately
Description: as §1

UniProt P25742 = details: peptide sequence: GCETKPITGLAGK; direction: stabilized; replicate design: treated separately
Description: as §1

UniProt P27833 = details: peptide sequence: SALINFLK; direction: stabilized; replicate design: treated separately
Description: as §1

UniProt P30844 = details: peptide sequence: AGQSFSSGNYQHVK; direction: stabilized; replicate design: treated separately
Description: as §1

UniProt P32143 = details: peptide sequence: AGIPDCDQTR; direction: stabilized; replicate design: treated separately
Description: as §1

UniProt P36938 = details: peptide sequence: TLVSSAMIDR; direction: stabilized; replicate design: treated separately
Description: as §1

UniProt P39342 = details: peptide sequence: AMVIAPCSR; direction: stabilized; replicate design: treated separately
Description: as §1

UniProt P45395 = details: peptide sequence: VNDIMHTGDEIPHVKK; direction: stabilized; replicate design: treated separately
Description: as §1

UniProt P46889 = details: peptide sequence: DIAGEPVVADLAK; direction: stabilized; replicate design: treated separately
Description: as §1

UniProt P75828 = details: peptide sequence: YLDIINR; direction: stabilized; replicate design: treated separately
Description: as §1

UniProt P76192 = details: peptide sequence: VLPAEEYAEIR; direction: stabilized; replicate design: treated separately
Description: as §1

UniProt Q47129 = details: peptide sequence: LSTVTTSGVNLSR; direction: stabilized; replicate design: treated separately
Description: as §1

Sequence of UniProt P76192 (P76192 whole entry): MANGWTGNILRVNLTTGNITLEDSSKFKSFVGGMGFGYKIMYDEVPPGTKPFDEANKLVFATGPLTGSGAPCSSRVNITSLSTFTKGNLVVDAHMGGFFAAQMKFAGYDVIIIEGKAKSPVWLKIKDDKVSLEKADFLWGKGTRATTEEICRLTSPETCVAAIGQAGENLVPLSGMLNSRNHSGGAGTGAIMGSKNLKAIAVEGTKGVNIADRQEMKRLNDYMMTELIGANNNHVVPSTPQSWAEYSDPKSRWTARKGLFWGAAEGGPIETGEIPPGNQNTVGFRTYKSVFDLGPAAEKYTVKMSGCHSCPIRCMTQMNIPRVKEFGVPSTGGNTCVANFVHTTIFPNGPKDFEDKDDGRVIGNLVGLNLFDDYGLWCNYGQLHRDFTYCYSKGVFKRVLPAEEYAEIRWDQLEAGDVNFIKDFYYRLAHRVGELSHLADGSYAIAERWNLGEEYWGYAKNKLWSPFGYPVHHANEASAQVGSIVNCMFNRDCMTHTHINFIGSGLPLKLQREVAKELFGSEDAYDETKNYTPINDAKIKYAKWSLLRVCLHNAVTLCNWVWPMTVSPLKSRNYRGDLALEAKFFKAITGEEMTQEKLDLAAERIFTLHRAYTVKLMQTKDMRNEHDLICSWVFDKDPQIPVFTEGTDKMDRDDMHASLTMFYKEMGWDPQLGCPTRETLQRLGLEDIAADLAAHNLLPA
Sequence of UniProt P46889 (P46889 whole entry): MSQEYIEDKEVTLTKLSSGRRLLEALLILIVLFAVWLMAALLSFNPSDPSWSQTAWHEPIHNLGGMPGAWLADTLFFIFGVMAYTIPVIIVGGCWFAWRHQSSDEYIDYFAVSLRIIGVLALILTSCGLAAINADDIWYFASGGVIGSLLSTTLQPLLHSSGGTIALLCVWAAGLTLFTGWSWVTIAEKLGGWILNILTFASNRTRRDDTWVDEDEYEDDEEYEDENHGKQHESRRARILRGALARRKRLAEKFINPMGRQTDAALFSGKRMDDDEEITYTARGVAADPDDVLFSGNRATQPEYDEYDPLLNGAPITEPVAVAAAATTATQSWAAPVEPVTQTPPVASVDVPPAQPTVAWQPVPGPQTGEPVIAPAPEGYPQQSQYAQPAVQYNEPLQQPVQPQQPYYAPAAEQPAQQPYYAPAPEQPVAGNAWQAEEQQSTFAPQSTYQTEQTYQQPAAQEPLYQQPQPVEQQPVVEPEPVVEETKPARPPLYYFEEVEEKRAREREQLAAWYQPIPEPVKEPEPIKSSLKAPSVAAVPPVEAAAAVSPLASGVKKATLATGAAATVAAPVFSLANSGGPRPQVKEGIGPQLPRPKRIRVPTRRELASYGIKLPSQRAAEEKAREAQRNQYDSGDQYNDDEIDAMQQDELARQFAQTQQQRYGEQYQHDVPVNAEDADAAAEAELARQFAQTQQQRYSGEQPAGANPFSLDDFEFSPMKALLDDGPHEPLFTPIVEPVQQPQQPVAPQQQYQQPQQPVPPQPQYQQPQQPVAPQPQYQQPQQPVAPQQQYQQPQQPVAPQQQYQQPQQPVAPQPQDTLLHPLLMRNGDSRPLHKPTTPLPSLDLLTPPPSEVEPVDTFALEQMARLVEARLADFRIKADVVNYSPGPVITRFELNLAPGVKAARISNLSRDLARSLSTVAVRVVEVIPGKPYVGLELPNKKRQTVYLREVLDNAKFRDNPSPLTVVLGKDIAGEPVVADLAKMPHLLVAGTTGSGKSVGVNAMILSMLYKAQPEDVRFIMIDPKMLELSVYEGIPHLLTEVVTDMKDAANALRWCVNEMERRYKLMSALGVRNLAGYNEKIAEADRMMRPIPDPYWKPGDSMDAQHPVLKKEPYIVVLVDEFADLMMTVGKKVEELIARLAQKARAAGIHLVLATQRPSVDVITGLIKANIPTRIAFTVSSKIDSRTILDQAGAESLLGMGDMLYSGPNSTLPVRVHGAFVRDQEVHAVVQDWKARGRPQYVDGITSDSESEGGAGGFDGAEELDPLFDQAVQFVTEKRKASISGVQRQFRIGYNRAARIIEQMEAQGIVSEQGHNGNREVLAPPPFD
Sequence of UniProt P32143 (P32143 whole entry): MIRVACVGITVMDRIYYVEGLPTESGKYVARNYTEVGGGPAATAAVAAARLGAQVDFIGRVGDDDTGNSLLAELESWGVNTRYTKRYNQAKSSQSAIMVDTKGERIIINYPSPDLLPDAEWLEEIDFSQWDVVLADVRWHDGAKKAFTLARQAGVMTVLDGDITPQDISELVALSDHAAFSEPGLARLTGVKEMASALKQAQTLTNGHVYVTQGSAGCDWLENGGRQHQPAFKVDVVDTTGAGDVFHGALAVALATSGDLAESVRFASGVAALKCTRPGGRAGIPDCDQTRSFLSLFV
Sequence of UniProt P0DMC5 (P0DMC5 whole entry): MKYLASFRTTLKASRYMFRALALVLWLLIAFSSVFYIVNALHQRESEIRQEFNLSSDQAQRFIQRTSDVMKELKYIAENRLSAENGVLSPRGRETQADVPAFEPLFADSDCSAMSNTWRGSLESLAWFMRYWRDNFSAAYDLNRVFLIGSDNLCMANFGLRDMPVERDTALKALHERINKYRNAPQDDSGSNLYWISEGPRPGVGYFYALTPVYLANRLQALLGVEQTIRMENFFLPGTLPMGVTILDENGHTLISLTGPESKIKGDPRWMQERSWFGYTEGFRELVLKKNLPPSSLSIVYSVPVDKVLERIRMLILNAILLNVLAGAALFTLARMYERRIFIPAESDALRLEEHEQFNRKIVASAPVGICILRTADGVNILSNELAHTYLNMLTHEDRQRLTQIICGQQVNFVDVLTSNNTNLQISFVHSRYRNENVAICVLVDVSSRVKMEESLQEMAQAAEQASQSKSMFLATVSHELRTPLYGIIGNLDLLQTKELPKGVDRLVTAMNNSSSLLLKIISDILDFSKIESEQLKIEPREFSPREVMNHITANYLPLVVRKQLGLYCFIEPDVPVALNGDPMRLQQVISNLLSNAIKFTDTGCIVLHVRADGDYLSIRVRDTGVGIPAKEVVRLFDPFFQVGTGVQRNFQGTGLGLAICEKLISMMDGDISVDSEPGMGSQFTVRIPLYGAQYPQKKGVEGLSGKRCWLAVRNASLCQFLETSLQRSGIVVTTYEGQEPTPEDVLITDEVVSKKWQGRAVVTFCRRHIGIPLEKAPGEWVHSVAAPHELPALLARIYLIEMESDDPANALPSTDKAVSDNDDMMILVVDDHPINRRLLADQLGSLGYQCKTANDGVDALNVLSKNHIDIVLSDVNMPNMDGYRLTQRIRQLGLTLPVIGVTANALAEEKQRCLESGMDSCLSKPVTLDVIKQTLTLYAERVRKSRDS
Sequence of UniProt P30844 (P30844 whole entry): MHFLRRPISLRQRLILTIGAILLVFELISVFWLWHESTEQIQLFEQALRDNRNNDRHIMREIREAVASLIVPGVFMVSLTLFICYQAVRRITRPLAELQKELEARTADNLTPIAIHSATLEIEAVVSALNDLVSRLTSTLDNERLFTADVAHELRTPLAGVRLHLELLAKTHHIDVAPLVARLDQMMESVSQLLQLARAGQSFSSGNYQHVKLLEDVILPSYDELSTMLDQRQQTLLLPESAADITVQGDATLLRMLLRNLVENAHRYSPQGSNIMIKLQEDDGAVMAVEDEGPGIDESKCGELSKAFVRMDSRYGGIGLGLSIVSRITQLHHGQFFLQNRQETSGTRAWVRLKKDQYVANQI
Sequence of UniProt P11868 (P11868 whole entry): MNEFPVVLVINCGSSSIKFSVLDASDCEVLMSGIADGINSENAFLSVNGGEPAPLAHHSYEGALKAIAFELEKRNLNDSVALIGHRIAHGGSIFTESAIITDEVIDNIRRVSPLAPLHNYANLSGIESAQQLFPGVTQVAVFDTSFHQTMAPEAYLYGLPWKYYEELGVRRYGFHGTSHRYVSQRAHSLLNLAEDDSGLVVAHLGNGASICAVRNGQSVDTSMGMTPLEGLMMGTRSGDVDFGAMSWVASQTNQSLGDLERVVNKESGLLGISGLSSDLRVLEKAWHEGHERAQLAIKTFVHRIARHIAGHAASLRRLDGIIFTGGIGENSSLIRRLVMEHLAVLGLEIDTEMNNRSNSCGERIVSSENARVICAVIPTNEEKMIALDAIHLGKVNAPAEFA
Sequence of UniProt P0AFU4 (P0AFU4 whole entry): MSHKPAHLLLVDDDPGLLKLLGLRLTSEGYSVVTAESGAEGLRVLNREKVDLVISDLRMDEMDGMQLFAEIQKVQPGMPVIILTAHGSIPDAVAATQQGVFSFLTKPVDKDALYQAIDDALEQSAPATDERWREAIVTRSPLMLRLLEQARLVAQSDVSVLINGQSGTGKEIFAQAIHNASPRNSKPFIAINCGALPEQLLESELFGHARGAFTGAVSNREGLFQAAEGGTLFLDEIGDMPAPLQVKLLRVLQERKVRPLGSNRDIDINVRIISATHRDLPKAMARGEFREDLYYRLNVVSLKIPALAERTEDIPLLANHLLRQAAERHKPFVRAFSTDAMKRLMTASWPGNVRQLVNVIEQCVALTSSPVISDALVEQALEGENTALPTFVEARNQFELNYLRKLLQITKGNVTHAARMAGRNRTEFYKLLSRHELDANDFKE
Sequence of UniProt P08200 (P08200 whole entry): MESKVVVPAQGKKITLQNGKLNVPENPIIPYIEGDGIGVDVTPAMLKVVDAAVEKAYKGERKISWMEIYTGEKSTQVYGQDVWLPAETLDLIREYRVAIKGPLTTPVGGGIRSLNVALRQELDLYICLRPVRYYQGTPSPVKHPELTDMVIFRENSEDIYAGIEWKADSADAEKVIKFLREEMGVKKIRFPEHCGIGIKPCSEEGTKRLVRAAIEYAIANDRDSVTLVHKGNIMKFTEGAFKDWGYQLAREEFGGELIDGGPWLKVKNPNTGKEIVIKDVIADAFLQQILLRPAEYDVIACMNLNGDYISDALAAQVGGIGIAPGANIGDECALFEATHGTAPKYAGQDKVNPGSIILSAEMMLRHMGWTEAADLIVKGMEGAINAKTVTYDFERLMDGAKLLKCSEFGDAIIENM

Nc1ncnc2c1ncn2[C@@H]1O[C@H](COP(=O)(O)OP(=O)(O)OP(=O)(O)O)[C@@H](O)[C@H]1O [adenosine 5'-triphosphate]
Details	pEC50 of peptide local stability change
MurF	4.01
UniProt P0A9P6	3.67
UniProt P0AEC3	2.99
UniProt P0AFU4	3.39
UniProt P0DMC5	2.58
UniProt P00452	3.75
UniProt P00954	2.73
UniProt P03007	2.27
UniProt P04993	2.84
UniProt P06710	3.78
UniProt P06999	3.2
UniProt P07862	3.66
UniProt P08192	2.7
UniProt P08200	2.33
UniProt P11868	3.41
UniProt P12282	3.44
UniProt P13000	4.87
UniProt P21693	3.65
UniProt P23538	4.42
UniProt P25539	2.74
UniProt P25742	2.67
UniProt P27833	2.89
UniProt P30844	2.71
UniProt P32143	3.39
UniProt P36938	2.48
UniProt P39342	4.23
UniProt P45395	3.32
UniProt P46889	2.99
UniProt P75828	2.65
UniProt P76192	3.75
UniProt Q47129	2.46
